The target in this assay is human GPR17 short isoform (Homo sapiens (Human), UniProt Q13304). Put plainly: GPR17 cAMP assay (hGPR17 cAMP, antagonist mode against EC80 of MDL29,951). The assay is classed as cell-based. To be noted: CHO-K1 cells stably expressing human GPR17 short isoform; EC80 of agonist MDL29,951; forskolin 15 μM. A digest of the protocol: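 cAMP was read by competitive TR-FRET after a 30 min room-temperature stimulation: antagonists plus EC80 MDL29,951 and 0.5 mM IBMX, followed 5 min later by 15 μM forskolin. Cells were CHO-K1 with stable human GPR17 short isoform in HBSS/HEPES/BSA, pH 7.4; percent activity versus reference antagonist fitted sigmoidally.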
human GPR17 short isoform, sequence (Q13304 29-367): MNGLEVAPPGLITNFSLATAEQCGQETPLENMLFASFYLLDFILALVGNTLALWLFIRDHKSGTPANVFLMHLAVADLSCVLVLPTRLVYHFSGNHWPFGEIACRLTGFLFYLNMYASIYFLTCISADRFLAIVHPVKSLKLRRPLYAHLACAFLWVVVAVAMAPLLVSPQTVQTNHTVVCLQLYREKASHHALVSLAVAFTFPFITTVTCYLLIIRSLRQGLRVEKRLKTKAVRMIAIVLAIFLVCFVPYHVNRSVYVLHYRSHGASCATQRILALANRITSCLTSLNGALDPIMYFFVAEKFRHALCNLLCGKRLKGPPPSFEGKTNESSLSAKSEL
Background: cAMP levels reflect the balance of adenylyl cyclase and phosphodiesterase activity.

A word on the IC50: it is the concentration needed to halve the response being measured. A lower IC50 goes with higher potency. `COc1nc(NS(=O)(=O)c2c[nH]c3c(SC(F)F)c(Cl)ccc23)nc(OC)c1OCCF` [Example 106, 6-chloro-7-(difluoromethylthio)-N-[5-(2-fluoroethoxy)-4,6-dimethoxy-pyrimidin-2-yl]-1H-indole-3-sulfonamide] yielded an IC50 of 7 nM.

The molecule `COc1nc(NS(=O)(=O)c2c[nH]c3c(SC(F)F)c(Cl)ccc23)nc(OC)c1CCC#N` [Example 107, 6-chloro-N-[5-(2-cyanoethyl)-4,6-dimethoxy-pyrimidin-2-yl]-7-(difluoromethylthio)-1H-indole-3-sulfonamide] showed an IC50 of 12 nM.

Molecule `COc1nc(NS(=O)(=O)c2c[nH]c3c(Cl)cccc23)ncc1CC(F)F` [Example 108, 7-chloro-N-[5-(2,2-difluoroethyl)-4-methoxy-pyrimidin-2-yl]-1H-indole-3-sulfonamide] registered a half-inhibitory concentration (IC50) of 642 nM.

`COc1nc(NS(=O)(=O)c2c[nH]c3nc(Br)ccc23)nc(OC)c1OCCF` [Example 109, 6-bromo-N-[5-(2-fluoroethoxy)-4,6-dimethoxy-pyrimidin-2-yl]-1H-pyrrolo[2,3-b]pyridine-3-sulfonamide] gave an IC50 of 36 nM.

Regarding `COc1nc(NS(=O)(=O)c2c[nH]c3nc(Br)ccc23)nc(OC)c1OC(F)(F)CF` [Example 110, 6-bromo-N-[4,6-dimethoxy-5-(1,1,2-trifluoroethoxy)pyrimidin-2-yl]-1H-pyrrolo[2,3-b]pyridine-3-sulfonamide], the concentration for half-maximal inhibition (IC50) was 25 nM.

Take `COc1nc(NS(=O)(=O)c2c[nH]c3nc(Br)ccc23)nc(OC)c1CC(F)F` [Example 111, 6-bromo-N-[5-(2,2-difluoroethyl)-4,6-dimethoxy-pyrimidin-2-yl]-1H-pyrrolo[2,3-b]pyridine-3-sulfonamide]: the IC50 was determined as 13 nM.

In turn, `COc1nc(NS(=O)(=O)c2c[nH]c3nc(Br)ccc23)nc(OC)c1CCC(F)F` [Example 112, 6-bromo-N-[5-(3,3-difluoropropyl)-4,6-dimethoxy-pyrimidin-2-yl]-1H-pyrrolo[2,3-b]pyridine-3-sulfonamide] came in with an IC50 of 16 nM.

In the case of `COc1nc(NS(=O)(=O)c2c[nH]c3nc(Br)ccc23)nc(OC)c1CCC#N` [Example 113, 6-bromo-N-[5-(2-cyanoethyl)-4,6-dimethoxy-pyrimidin-2-yl]-1H-pyrrolo[2,3-b]pyridine-3-sulfonamide], the IC50 was 21 nM.

As to `COc1nc(NS(=O)(=O)c2c[nH]c3nc(Br)ccc23)nc(OC)c1OCC#N` [Example 114, 6-bromo-N-[5-(cyanomethoxy)-4,6-dimethoxy-pyrimidin-2-yl]-1H-pyrrolo[2,3-b]pyridine-3-sulfonamide], the IC50 is 45 nM.

`COc1nc(NS(=O)(=O)c2c[nH]c3c(N(C)C)c(Cl)ccc23)nc(OC)c1CC(F)F` [Example 115, 6-chloro-N-[5-(2,2-difluoroethyl)-4,6-dimethoxy-pyrimidin-2-yl]-7-(dimethylamino)-1H-indole-3-sulfonamide]: the IC50 is 26 nM.

Turning to `COc1nc(NS(=O)(=O)c2c[nH]c3c2ccc2cccnc23)nc(OC)c1OC(F)F` [Example 116, N-[5-(difluoromethoxy)-4,6-dimethoxy-pyrimidin-2-yl]-1H-pyrrolo[3,2-h]quinoline-3-sulfonamide], the half-inhibitory concentration (IC50) worked out at 26 nM.

For `COc1nc(NS(=O)(=O)c2c[nH]c3c2ccc2cccnc23)nc(OC)c1OCCF` [Example 117, N-[5-(2-fluoroethoxy)-4,6-dimethoxy-pyrimidin-2-yl]-1H-pyrrolo[3,2-h]quinoline-3-sulfonamide], the IC50 worked out at 30 nM.

In turn, `COc1nc(NS(=O)(=O)c2c[nH]c3nc(Cl)ccc23)nc(OC)c1C` [Example 118, 6-chloro-N-(4,6-dimethoxy-5-methyl-pyrimidin-2-yl)-1H-pyrrolo[2,3-b]pyridine-3-sulfonamide] had a half-maximal inhibitory concentration (IC50) of 33 nM.

For the molecule `COc1nc(NS(=O)(=O)c2c[nH]c3nc(Cl)ccc23)ncc1OC(F)F` [Example 119, 6-chloro-N-[5-(difluoromethoxy)-4-methoxy-pyrimidin-2-yl]-1H-pyrrolo[2,3-b]pyridine-3-sulfonamide], the IC50 was found to be 161 nM.

Consider `COc1nc(NS(=O)(=O)c2c[nH]c3nc(Cl)ccc23)nc(OC)c1CC(F)F` [Example 120, 6-chloro-N-[5-(2,2-difluoroethyl)-4,6-dimethoxy-pyrimidin-2-yl]-1H-pyrrolo[2,3-b]pyridine-3-sulfonamide], for which the 50% inhibitory concentration (IC50) stood at 40 nM.

`COc1nc(NS(=O)(=O)c2c[nH]c3nc(Cl)ccc23)nc(OC)c1CCC(F)F` [Example 121, 6-chloro-N-[5-(3,3-difluoropropyl)-4,6-dimethoxy-pyrimidin-2-yl]-1H-pyrrolo[2,3-b]pyridine-3-sulfonamide] returned a half-maximal inhibitory concentration (IC50) of 16 nM.

`COc1nc(NS(=O)(=O)c2c[nH]c3nc(Cl)ccc23)nc(OC)c1CCC#N` [Example 122, 6-chloro-N-[5-(2-cyanoethyl)-4,6-dimethoxy-pyrimidin-2-yl]-1H-pyrrolo[2,3-b]pyridine-3-sulfonamide] displayed a half-maximal inhibitory concentration (IC50) of 36 nM.

Molecule `COc1nc(NS(=O)(=O)c2c[nH]c3c(F)c(Cl)ccc23)ncc1CC(F)F` [Example 124, 6-chloro-N-[5-(2,2-difluoroethyl)-4-methoxy-pyrimidin-2-yl]-7-fluoro-1H-indole-3-sulfonamide] yielded a half-inhibitory concentration (IC50) of 34 nM.

On to `COc1nc(NS(=O)(=O)c2c[nH]c3c(F)c(Cl)ccc23)nc(OC)c1OC(F)F` [Example 125, 6-chloro-N-[5-(difluoromethoxy)-4,6-dimethoxy-pyrimidin-2-yl]-7-fluoro-1H-indole-3-sulfonamide], for which the 50% inhibitory concentration (IC50) amounted to 23 nM.

The molecule `COc1nc(NS(=O)(=O)c2c[nH]c3c(F)c(Cl)ccc23)ncc1OC(F)F` [Example 126, 6-chloro-N-[5-(difluoromethoxy)-4-methoxy-pyrimidin-2-yl]-7-fluoro-1H-indole-3-sulfonamide] showed a half-maximal inhibitory concentration (IC50) of 82 nM.

For `COc1nc(NS(=O)(=O)c2c[nH]c3c(OC4CC4)c(Cl)ccc23)ncc1CC(F)F` [Example 127, 6-chloro-7-(cyclopropoxy)-N-[5-(2,2-difluoroethyl)-4-methoxy-pyrimidin-2-yl]-1H-indole-3-sulfonamide], the 50% inhibitory concentration (IC50) was found to be 30 nM.

For the molecule `COc1nc(NS(=O)(=O)c2c[nH]c3c(Br)c(F)ccc23)ncc1CC(F)F` [Example 128, 7-bromo-N-[5-(2,2-difluoroethyl)-4-methoxy-pyrimidin-2-yl]-6-fluoro-1H-indole-3-sulfonamide], the IC50 stood at 446 nM.

`COc1nc(NS(=O)(=O)c2c[nH]c3c(Br)cccc23)ncc1CC(F)F` [Example 129, 7-bromo-N-[5-(2,2-difluoroethyl)-4-methoxy-pyrimidin-2-yl]-1H-indole-3-sulfonamide] returned an IC50 of 961 nM.

`COc1nc(NS(=O)(=O)c2c[nH]c3c(Cl)c(F)ccc23)ncc1CC(F)F` [Example 130, 7-chloro-N-[5-(2,2-difluoroethyl)-4-methoxy-pyrimidin-2-yl]-6-fluoro-1H-indole-3-sulfonamide] yielded a concentration for half-maximal inhibition (IC50) of 386 nM.

`COc1nc(NS(=O)(=O)c2c[nH]c3nc(C)ccc23)nc(OC)c1OCCF` [Example 131, N-[5-(2-fluoroethoxy)-4,6-dimethoxy-pyrimidin-2-yl]-6-methyl-1H-pyrrolo[2,3-b]pyridine-3-sulfonamide]: the IC50 came out at 116 nM.

`COc1nc(NS(=O)(=O)c2c[nH]c3nc(C)ccc23)nc(OC)c1CC(F)F` [Example 132, N-[5-(2,2-difluoroethyl)-4,6-dimethoxy-pyrimidin-2-yl]-6-methyl-1H-pyrrolo[2,3-b]pyridine-3-sulfonamide]: the IC50 is 39 nM.

The molecule `COc1nc(NS(=O)(=O)c2c[nH]c3c(N4CCOCC4)c(Cl)ccc23)nc(OC)c1CC(F)F` [Example 133, 6-chloro-N-[5-(2,2-difluoroethyl)-4,6-dimethoxy-pyrimidin-2-yl]-7-morpholino-1H-indole-3-sulfonamide] gave a 50% inhibitory concentration (IC50) of 76 nM.

For `COc1nc(NS(=O)(=O)c2c[nH]c3c(Br)cccc23)nc(OC)c1CC(F)F` [Example 134, 7-bromo-N-[5-(2,2-difluoroethyl)-4,6-dimethoxy-pyrimidin-2-yl]-1H-indole-3-sulfonamide], the half-inhibitory concentration (IC50) is 124 nM.

Consider `COc1nc(NS(=O)(=O)c2c[nH]c3cc(Cl)ccc23)ncc1OCC(F)F` [Example 135, 6-chloro-N-[5-(2,2-difluoroethoxy)-4-methoxy-pyrimidin-2-yl]-1H-indole-3-sulfonamide], for which the concentration for half-maximal inhibition (IC50) is 187 nM.

The molecule `COc1nc(NS(=O)(=O)c2c[nH]c3cc(Cl)ccc23)ncc1C(C)(F)F` [Example 136, 6-chloro-N-[5-(1,1-difluoroethyl)-4-methoxy-pyrimidin-2-yl]-1H-indole-3-sulfonamide] had a 50% inhibitory concentration (IC50) of 747 nM.

Molecule `CCc1nc(NS(=O)(=O)c2c[nH]c3cc(Cl)ccc23)nc(OC)c1C` [Example 137, 6-chloro-N-(4-ethyl-6-methoxy-5-methyl-pyrimidin-2-yl)-1H-indole-3-sulfonamide] showed an IC50 of 442 nM.

For the molecule `COc1nc(NS(=O)(=O)c2c[nH]c3cc(Cl)ccc23)nc(C2CCOCC2)c1Br` [Example 138, N-(5-bromo-4-methoxy-6-tetrahydropyran-4-yl-pyrimidin-2-yl)-6-chloro-1H-indole-3-sulfonamide], the IC50 worked out at 20800 nM.

For `COc1nc(NS(=O)(=O)c2csc3nc(Cl)ccc23)ncc1CC(F)F` [Example 139, 6-chloro-N-[5-(2,2-difluoroethyl)-4-methoxy-pyrimidin-2-yl]thieno[2,3-b]pyridine-3-sulfonamide], the IC50 was found to be 106 nM.

In turn, `COc1nc(NS(=O)(=O)c2c[nH]c3cc(F)ccc23)ncc1CC(F)F` [Example 140, N-[5-(2,2-difluoroethyl)-4-methoxy-pyrimidin-2-yl]-6-fluoro-1H-indole-3-sulfonamide] registered an IC50 of 50 nM.

Turning to `COc1nc(NS(=O)(=O)c2c[nH]c3c(Br)c(Cl)ccc23)ncc1OCCF` [Example 141, 7-bromo-6-chloro-N-[5-(2-fluoroethoxy)-4-methoxy-pyrimidin-2-yl]-1H-indole-3-sulfonamide], the half-maximal inhibitory concentration (IC50) was 14 nM.

Source of the values: patent US20240025883A1, “PYRIMIDIN-2-YL SULFONAMIDE DERIVATIVES” (Hoffmann-La Roche Inc., priority 2021, published 2024).
